Patent US20090214696A1, “Lycopene Incorporation Into Egg Yolks” (priority 2005, published 2009)
Read-outs that look alike come from different tables or passages of the source.

Assays:
[1] = egg vs vegetable sources; cited from earlier work
[2] = Study 2: yolk and plasma lycopene/lutein by UV/VIS spectrophotometer; type: in vivo, Second Cycle Hyline W36 Hens
Source text: (§1) Commercial laying hen diet (corn, soybean, from NuWest) was supplemented with lycopene and lutein (DSM). Second Cycle Hyline W36 Hens were housed in standard lay cages. Dependant Variables: Yolks and Plasma. Lipid Extraction was done as previously described (Koutsos at al. 2003 J Nutr 133:1132-1138). A UV/VIS spectrophotometer was use to measure absorbance at 464 nm for Lutein and 352 nm for Lycopene. For Studies 2 and 3, the Roche Colour Score was taken of egg yolks using a blind analysis. The following statistics were calculated: ANOVA for main effect of diet+days on diet and interactions and t-test for differences between means. Results were significant at p<0.05.
(§2) In Study 2, 5 hens were housed per cage and 3 cages were given treatment for 19 d on a diet at 100 g diet/bird*d. Lycopene and Lutein levels were increased and dispersed in H2O: Diet 1: Negative Control+3000 ml H2O; Diet 2: Negative Control+880 mg lycopene/kg diet +3000 ml H2O; Diet 3: Negative Control+5140 mg lycopene/kg diet+3000 ml H2O; Diet 4: Negative Control+7.8 mg Lutein/kg diet+3000 ml H2O. The Roche Yolk Colour Fan was used (FIG. 4, 5). […] Diet had no effect on Yolk Lutein and/or Lycopene (p>0.20 for all). Diet on Plasma lycopene had no effect (p=0.17). Plasma Lutein+Lycopene had no effect (p=0.07). Diet on Plasma Lutein: (p=0.04).

[3] = Study 1: yolk and plasma lycopene/lutein by UV/VIS spectrophotometer; type: in vivo, second cycle laying hens (Hyline W36); conditions: Diet 4: 48 mg lycopene + 6.5 mg Lutein/kg diet, 19 d
Description: Lycopene is a carotenoid with potential anti-cancer functions. […] Therefore, second cycle laying hens (Hyline W36) were examined for their ability to absorb dietary lycopene and incorporate lycopene into egg yolks. A completely randomized design was used in which 3 levels of dietary lycopene (0, 1.0 and 5.7 mg/bird*day) or lycopene +lutein (5.7 mg lycopene+0.8 mg lutein/bird*day) were incorporated into the birds normal diet. Birds were housed in commercial cages with ad libitum access to water (n=3 cages/diet; 5 birds/cage), and were fed 120 g diet/bird*day. […] Future trials will examine increased dietary lycopene levels and routes of administration.
as §1, with “p<0.05. […]” for “p<0.05.”

[4] = Study 2: Roche Yolk Colour Fan; type: in vivo, Second Cycle Hyline W36 Hens; conditions: 880 or 5140 mg lycopene/kg diet or 7.8 mg Lutein/kg diet dispersed in H2O, 19 d
Source text: as §1, §2

[5] = acute toxicity, rats; cited from earlier work
[6] = acute toxicity, mice; cited from earlier work
[7] = Study 3: yolk and plasma lycopene/lutein by UV/VIS spectrophotometer; type: in vivo, Second Cycle Hyline W36 Hens
Source text: as §1
(§3) In Study 3, 5 hens were housed per cage and 1 cage received treatment for 15 d on diet at 100 g diet/bird*d. Lycopene levels were increased and dispersed in H2O: Diet 1: Negative Control+3000 ml H2O; Diet 2: Negative Control+880 mg lycopene/kg diet+3000 ml H2O; Diet 3: Negative Control+1285 mg lycopene/kg diet+3000 ml H2O; Diet 4: Negative Control +2570 mg lycopene/kg diet+3000 ml H2O; Diet 5: Negative Control+3855 mg lycopene/kg diet+3000 ml H2O; Diet 6: Negative Control+5140 mg lycopene/kg diet+3000 ml H2O; Diet 7: Negative Control+6425 mg lycopene/kg diet+3000 ml H2O; Diet 8: Diet 5+7.8 mg Lutein/kg diet; Diet 9: Diet 7+7.8 mg Lutein/kg diet.

[8] = Roche yolk color score of eggs from hens fed lycopene (Example 1 trial); type: in vivo, White Leghorn laying hens; conditions: 65, 257 or 650 mg lycopene/kg diet vs 0 mg, 15 days, p<0.05
Source text: (§4) The purpose of this trial was to examine the ability of the laying hen to deposit lycopene into the egg yolk for the purpose of supplementing human diets with additional lycopene. Control egg-laying hens were fed a 100 gram per bird basal diet for 15 days described in Table 1. Test hens were fed the basal diet supplemented with varying amounts of lycopene.
The California Polytechnic State University Animal Care and Use Committee approved all protocols. Using a completely randomized design, first-cycle White Leghorn (Hyline W36 strain, 23 wks old) laying hens from the Cal Poly University flock were randomly assigned to one of three dietary lycopene levels. Birds were fed a basal diet formulated to meet or exceed all nutrient requirements for laying hens (National Research Council 1994 Nutrient requirements of Poultry, Ninth Revised Edition, National Academy Press, Washington, D.C.) plus either 0, 65, 257, or 650 mg lycopene/kg diet; the lycopene provided was the all-trans isomer. Dietary levels were chosen based on the amount of lycopene contained in an uncooked 100 g tomato, as well as data concerning the absorption of lutein by laying hens (Leeson, S. and Caston, L. 2004 Poultry Science 83:1709-1712). Lycopene was supplied in a 5% powder form attached to a gelatin molecule. […]

[9] = Yolk lycopene concentration by HPLC in eggs from hens fed lycopene (Example 1 trial); type: in vivo, White Leghorn laying hens
Source text: as §4
The California Polytechnic State University Animal Care and Use Committee approved all protocols. Using a completely randomized design, first-cycle White Leghorn (Hyline W36 strain, 23 wks old) laying hens from the Cal Poly University flock were randomly assigned to one of three dietary lycopene levels. Birds were fed a basal diet formulated to meet or exceed all nutrient requirements for laying hens (National Research Council 1994 Nutrient requirements of Poultry, Ninth Revised Edition, National Academy Press, Washington, D.C.) plus either 0, 65, 257, or 650 mg lycopene/kg diet; the lycopene provided was the all-trans isomer. Dietary levels were chosen based on the amount of lycopene contained in an uncooked 100 g tomato, as well as data concerning the absorption of lutein by laying hens (Leeson, S. and Caston, L. 2004 Poultry Science 83:1709-1712). Lycopene was supplied in a 5% powder form attached to a gelatin molecule. In order for lycopene to be absorbed from this source, water (60° C.) was used to disperse the lycopene prior to dietary addition.
Hens were housed in commercial-type cages (n=3 cages/diet, 4 birds/cage, 135 sq. inches/bird) with ad libitum access to water. Hens were fed their assigned diets at 100 g/bird*day for 15 days. Eggs were gathered daily, and after 15 days of dietary feeding, analysis of egg lycopene levels were completed by Roche color score (a standardized set of color swatches corresponding to a number from 1-15) and by HPLC analysis (DSM International, Basel Switzerland).

[10] = Study 3: Roche Yolk Colour Fan; type: in vivo, Second Cycle Hyline W36 Hens; conditions: control diet vs diets >1285 mg Lycopene, 15 d
Source text: as §1, §3

[11] = Study 1: Roche color fan of egg yolks; type: in vivo, second cycle laying hens (Hyline W36); conditions: 0, 1.0 and 5.7 mg lycopene/bird*day, after 18 d

Row | Structure (SMILES) | Absorbance from egg relative to absorbance from vegetable sources [1] | Yolk lutein ([2]; effect of diet, Study 2, p>0.20) | Yolk lutein ([3]; p<0.05) | Plasma lutein ([3]; p=0.36) | Roche Colour Fan score [4] | Plasma Lutein+Lycopene ([2]; in vivo) | Plasma lycopene ([2]; in vivo) | Yolk Lycopene ([2]; in vivo) | LD50 [5] | LD50 [6] | Yolk Lycopene ([7]; effect of diet, Study 3, p<0.01, Diets 2, 3 = 880, 1285 mg lycopene/kg diet) | Yolk Lutein+Lycopene ([7]; effect of diet, Study 3, p=0.94) | Plasma Lutein and/or Lycopene ([7]; in vivo) | Roche yolk color score [8] | Yolk lycopene levels (HPLC) ([9]; 257 or 650 mg lycopene/kg diet vs 65 mg/kg diet, 15 days, p<0.05) | concentration at 15 days ([9]; female, White Leghorn (Hyline W36), chicken (laying hen), egg yolk, oral, based upon HPLC data, large egg, read-out: Maximal concentration of yolk lycopene (converted)) [ng/g] | Dietary level for optimal lycopene incorporation into egg (regression analysis) ([9]; regression of yolk lycopene on dietary lycopene) [mg/kg diet] | Yolk pigment (Roche color scores) [10] | Egg yolk pigmentation (Roche color fan) [11]
1 | CC1=C[C@H](O)CC(C)(C)[C@H]1/C=C/C(C)=C/C=C/C(C)=C/C=C/C=C(C)/C=C/C=C(C)/C=C/C1=C(C)C[C@@H](O)CC1(C)C [lutein] | approximately 2.12 times | no effect | increased | no increase | no effect |  |  |  |  |  |  |  |  |  |  |  |  |  | 
2 | CC(C)=CCC/C(C)=C/C=C/C(C)=C/C=C/C(C)=C/C=C/C=C(C)/C=C/C=C(C)/C=C/C=C(\C)CCC=C(C)C [lycopene] |  |  |  |  | 5140 mg>0 mg | no effect | no effect | no effect | 10,000 mg/kg body weight | 3000 mg lycopene/kg body weight | Diet 2, 3>1, 4, 5, 6, 8, 9 | no effect | no effect | significantly greater yolk color score | significantly greater lycopene levels | 4710 | 420 | consistent difference in yolk pigment | no detectable change in pigmentation
